Experimental findings from patent US9133187B2, “Serine/threonine kinase inhibitors” (ARRAY BIOPHARMA INC., priority 2011, dated 2015) are described below.

Test [1] relates to PMA-stimulated P90RSK(Ser380) phosphorylation in HepG2 cells. Kind of test: Cellular P90RSK(Ser380) Phosphorylation Assay. The class given is cell-based. The following applies: Homo sapiens, 1.5 h compound incubation, PMA stimulation, pP90RSK(Ser380) normalized to GAPDH, read-out: Cell Assay IC50. Here is the method: Inhibition of PMA-stimulated P90RSK(Ser380) phosphorylation was determined by the following in vitro cellular mechanistic assay, which comprises incubating cells with a compound for 1.5 hours and quantifying fluorescent pP90RSK(Ser380) signal on fixed cells and normalizing to GAPDH signal.
Materials and Methods: HepG2 cells were obtained from ATCC and grown in DMEM supplemented with 10% fetal bovine serum. Cells were plated in 96-well plates at 35,000 cells/well and allowed to attach overnight at 37° C./5% CO2. Diluted compounds were then added at a final concentration of 0.5% DMSO. After 1.5 hour compound incubation, cells were stimulated with the addition of PMA (phorbol 12-myristate 13-acetate) at a final concentration of 100 ng/mL; the PMA stimulation was a 30-minute incubation at 37° C./5% CO2. After the 30-minute PMA stimulation, cells were washed with PBS and fixed in 3.7% formaldehyde in PBS at room temperature for 15-20 minutes. This was followed by another wash in PBS and then permeabilization in 100% MeOH at room temperature for 10-15 minutes. Following the permeabilization incubation, cells were washed in PBS/0.05% Tween-20, followed by a block in Odyssey blocking buffer (LI-COR Biosciences) for at least 1 hour. Antibodies to phosphorylated P90RSK(Ser380) (Cell Signaling #9335, rabbit monoclonal) and GAPDH (Fitzgerald 10R-G109a, mouse monoclonal) were added to the cells and incubated overnight at 4° C. pP90RSK(Ser380) antibody was used at a 1:250 dilution; GAPDH was used at a 1:10,000 dilution. After washing with PBS/0.05% Tween-20, the cells were incubated with fluorescently-labeled secondary antibodies (Anti-rabbit-Alexa Flour680, Invitrogen Cat#A21109; Anti-mouse-IRDye800CW, Rockland Inc. Cat#610-131-121) for 1 hour. Both secondary antibodies were used at a 1:1000 dilution. Cells were then washed and analyzed for fluorescence at both wavelengths using the Odyssey Infrared Imaging System (LI-COR Biosciences). Phosphorylated P90RSK(Ser380) signal was normalized to GAPDH signal. Representative date is in TABLE III (infra).

For test [2], the target named is human ERK-2 (Mitogen Activated Kinase 1) (Homo sapiens (Human), UniProt P28482). Kind of test: ERK-2 Enzymatic Assay. The format is biochemical. Conditions: 5 nM ERK-2, 25 μM ATP, Omnia peptide S/T17; read-out: ERK Inhibition IC50. The protocol:
Compounds were tested in an enzymatic assay using human ERK-2 (Mitogen Activated Kinase 1), recombinantly expressed as an n-terminal 6-His fusion protein in E. coli and corresponding to aa 8-360. The substrate used was the fluorescent Omnia peptide S/T17 (Invitrogen of Carlsbad, Calif.; Cat. KNZ1171C). Test compounds were diluted in DMSO in 3-fold serial dilutions at 100× final concentrations. […] The assay was run at ambient temperature in a white 384-well polypropylene plate (Nunc, Inc of Naperville, Ill.; Cat. 267462) collecting data every 50 seconds for approximately 30 minutes on an Envision plate reader (PerkinElmer, Inc. of Waltham, Mass.); Excitation 340 nm/Emission 495 nm. The data collected from each well was fit to a straight line and the resulting rates were used to calculate percent of control. Percent of control was plotted against compound concentration and IC50 values were determined using a four-parameter fit.

Counter-ions that a name gives are not always drawn.

In general, IC50 refers to the point on the concentration scale where inhibition reaches its midpoint.

human ERK-2 (Mitogen Activated Kinase 1), sequence (P28482 8-360): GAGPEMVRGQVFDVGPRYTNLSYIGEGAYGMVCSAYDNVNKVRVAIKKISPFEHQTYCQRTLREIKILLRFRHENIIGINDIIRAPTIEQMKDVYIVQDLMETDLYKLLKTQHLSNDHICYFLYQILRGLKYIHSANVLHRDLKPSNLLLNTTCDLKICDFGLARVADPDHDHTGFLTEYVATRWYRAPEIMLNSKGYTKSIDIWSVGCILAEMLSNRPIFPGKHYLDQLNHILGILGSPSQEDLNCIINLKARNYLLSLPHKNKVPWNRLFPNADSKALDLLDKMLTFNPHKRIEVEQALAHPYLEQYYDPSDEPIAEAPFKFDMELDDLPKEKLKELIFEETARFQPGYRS

For the compound `Cc1noc(C)c1Nc1ncc2c(n1)CN(C(=O)N[C@H](CO)c1ccc(F)c(Cl)c1)CC2` [II-34, 2-(3,5-Dimethyl-isoxazol-4-ylamino)-5,8-dihydro-6H-pyrido[3,4-d]pyrimidine-7-carboxylic acid [(S)-1-(3-chloro-4-fluoro-phenyl)-2-hydroxy-ethyl]-amide], the results for the IC50 in test [1] and in test [2] were 13200 nM and 25.9 nM, respectively.

For the compound `CC(=O)N1CCC[C@H]1[C@@H](NC(=O)N1CCc2cnc(NC(C)C)nc2C1)c1ccc(Cl)c(F)c1` [Compound I-87, N—((S)—((S)-1-acetylpyrrolidin-2-yl)(4-chloro-3-fluorophenyl)methyl)-2-(isopropylamino)-5,6-dihydropyrido[3,4-d]pyrimidine-7(8H)-carboxamide], the IC50 in test [1] is 5100 nM; in test [2] it was 195 nM.

For `CNC[C@@H](NC(=O)N1CCc2cnc(Nc3ccc(F)cc3)nc2C1)c1ccc(F)c(Cl)c1` [II-35, 2-(4-Fluoro-phenylamino)-5,8-dihydro-6H-pyrido[3,4-d]pyrimidine-7-carboxylic acid [(S)-1-(3-chloro-4-fluoro-phenyl)-2-methylamino-ethyl]-amide], the IC50 in test [1] came out at 160 nM; in test [2] it was 21.5 nM.

As to `COCC[C@@H](CO)Nc1ncc2c(n1)CN(C(=O)N[C@H](C)c1ccc(Cl)c(Cl)c1)CC2` [II-399, 2-((S)-1-Hydroxymethyl-3-methoxy-propylamino)-5,8-dihydro-6H-pyrido[3,4-d]pyrimidine-7-carboxylic acid [(R)-1-(3,4-dichloro-phenyl)-ethyl]-amide], the IC50 came to 287 nM in test [1] and 3.03 nM in test [2].

As to `COCCNC[C@@H](NC(=O)N1CCc2cnc(NC(C)C)nc2C1)c1ccc(F)c(Cl)c1` [II-41, 2-Isopropylamino-5,8-dihydro-6H-pyrido[3,4-d]pyrimidine-7-carboxylic acid [(S)-1-(3-chloro-4-fluoro-phenyl)-2-(2-methoxy-ethylamino)-ethyl]-amide], the figures for the IC50 in test [1] and in test [2] were 1900 nM and 15.4 nM, respectively.

As to `CNC(=O)C(NC(=O)N1CCc2cnc(NC(C)C)nc2C1)c1ccc(F)c(Cl)c1` (stereo not shown) [II-26, 2-Isopropylamino-5,8-dihydro-6H-pyrido[3,4-d]pyrimidine-7-carboxylic acid [(3-chloro-4-fluoro-phenyl)-methylcarbamoyl-methyl]-amide], the IC50 turned out to be 12200 nM in test [1] and 86.6 nM in test [2].

For `N#CC[C@@H](NC(=O)N1CCc2cnc(NC3CCOCC3)nc2C1)c1ccc(F)c(Cl)c1` [Compound I-59, (R)—N-(1-(3-chloro-4-fluorophenyl)-2-cyanoethyl)-2-(tetrahydro-2H-pyran-4-ylamino)-5,6-dihydropyrido[3,4-d]pyrimidine-7(8H)-carboxamide], the figures for the IC50 in test [1] and in test [2] were 85.5 nM and 0.6 nM, respectively.

In the case of `C[C@@H](CO)Nc1ncc2c(n1)CN(C(=O)NCc1ccc(Cl)c(Cl)c1)CC2` [Compound I-90, (S)—N-(3,4-dichlorobenzyl)-2-(1-hydroxypropan-2-ylamino)-5,6-dihydropyrido[3,4-d]pyrimidine-7(8H)-carboxamide], the IC50 in test [1] worked out at 103 nM; in test [2] it was 2.1 nM.

Take `CC(C)Nc1ncc2c(n1)CN(C(=O)N[C@H](CN)c1ccc(F)c(Cl)c1)CC2` [II-7, 2-Isopropylamino-5,8-dihydro-6H-pyrido[3,4-d]pyrimidine-7-carboxylic acid [(S)-2-amino-1-(3-chloro-4-fluoro-phenyl)-ethyl]-amide]: the IC50 amounted to 50000 nM in test [1] and 1.9 nM in test [2].

On to `C[C@@H](NC(=O)N1CCc2cnc(N[C@H]3C[C@@H](O)C3)nc2C1)c1ccc(Cl)c(Cl)c1` [II-371, 2-((1S,3S)-3-Hydroxy-cyclobutylamino)-5,8-dihydro-6H-pyrido[3,4-d]pyrimidine-7-carboxylic acid [(R)-1-(3,4-dichloro-phenyl)-ethyl]amide], for which the IC50 in test [1] stood at 90 nM; in test [2], 3.15 nM.

As for `CNC[C@@H](NC(=O)N1CCc2cnc(NC(C)C)nc2C1)c1ccc(C(F)(F)F)c(F)c1` [Compound I-66, (S)—N-(1-(3-fluoro-4-(trifluoromethyl)phenyl)-2-(methylamino)ethyl)-2-(isopropylamino)-5,6-dihydropyrido[3,4-d]pyrimidine-7(8H)-carboxamide hydrochloride], the IC50 in test [1] worked out at 132 nM; in test [2], 4.1 nM.

On to `CC1(C)CC[C@@H]([C@@H](NC(=O)N2CCc3cnc(NC4CCOCC4)nc3C2)c2ccc(C(F)(F)F)cc2F)N1` [Compound I-86, N—((S)—((S)-5,5-dimethylpyrrolidin-2-yl)(2-fluoro-4-(trifluoromethyl)phenyl)methyl)-2-(tetrahydro-2H-pyran-4-ylamino)-5,6-dihydropyrido[3,4-d]pyrimidine-7(8H)-carboxamide], for which the IC50 in test [1] was found to be 3600 nM; in test [2], 148 nM.

Consider `CC(C)Nc1ncc2c(n1)CN(C(=O)N[C@@H](c1ccc(Cl)c(Cl)c1)[C@H](O)CO)CC2` [Compound I-62, N-((1S,2S)-1-(3,4-dichlorophenyl)-2,3-dihydroxypropyl)-2-(isopropylamino)-5,6-dihydropyrido[3,4-d]pyrimidine-7(8H)-carboxamide], for which the IC50 in test [1] was 109 nM; in test [2] it was 2.4 nM.

For `O=C(N1CCc2cnc(NC3CCOCC3)nc2C1)N1CCCC1c1ccccn1` (stereo not shown) [II-288, (2-Pyridin-2-yl-pyrrolidin-1-yl)-[2-(tetrahydro-pyran-4-ylamino)-5,8-dihydro-6H-pyrido[3,4-d]pyrimidin-7-yl]-methanone], the IC50 in test [1] was 9500 nM; in test [2], 62.7 nM.

With `C[C@@H](CO)Nc1ncc2c(n1)CN(C(=O)N[C@@H](c1ccc(Cl)c(Cl)c1)C(F)(F)F)CC2` [Compound I-23, N—((S)-1-(3,4-dichlorophenyl)-2,2,2-trifluoroethyl)-2-((S)-1-hydroxypropan-2-ylamino)-5,6-dihydropyrido[3,4-d]pyrimidine-7(8H)-carboxamide], the results for the IC50 in test [1] and in test [2] were 493 nM and 3.2 nM, respectively.

Regarding `COC[C@@H](NC(=O)N1CCc2cnc(NCCO)nc2C1)c1ccc(Cl)c(Cl)c1` [Compound I-73], the concentration for half-maximal inhibition (IC50) in test [1] turned out to be 241 nM; in test [2] it was 9.8 nM.

On to `CC(C)Nc1ncc2c(n1)CN(C(=O)N[C@H](CCO)c1ccc(C(F)(F)F)c(F)c1)CC2` [II-72, 2-Isopropylamino-5,8-dihydro-6H-pyrido[3,4-d]pyrimidine-7-carboxylic acid [(R)-1-(3-fluoro-4-trifluoromethyl-phenyl)-3-hydroxy-propyl]-amide], for which the IC50 in test [1] was 208 nM; in test [2], 7.2 nM.

With `O=C(NCc1ccc2cc[nH]c2c1)N1CCc2cnc(NC3CCOCC3)nc2C1` [II-223, 2-(Tetrahydro-pyran-4-ylamino)-5,8-dihydro-6H-pyrido[3,4-d]pyrimidine-7-carboxylic acid (1H-indol-6-ylmethyl)-amide], the 50% inhibitory concentration (IC50) in test [1] stood at 186 nM; in test [2], 5.7 nM.

Consider `C[C@@H](NC(=O)N1CCc2cnc(NC3CCN(C)CC3)nc2C1)c1ccc(Cl)c(Cl)c1` [Compound I-83, (R)—N-(1-(3,4-dichlorophenyl)ethyl)-2-(1-methylpiperidin-4-ylamino)-5,6-dihydropyrido[3,4-d]pyrimidine-7(8H)-carboxamide], for which the IC50 in test [1] came to 2500 nM; in test [2], 113 nM.

As to `C[C@@H](NC(=O)N1CCc2cnc(N[C@H]3CCC(F)(F)C3)nc2C1)c1ccc(Cl)c(Cl)c1` [II-116, 2-((S)-3,3-Difluoro-cyclopentylamino)-5,8-dihydro-6H-pyrido[3,4-d]pyrimidine-7-carboxylic acid [(R)-1-(3,4-dichloro-phenyl)-ethyl]-amide], the values for the IC50 in test [1] and in test [2] were 130 nM and 2.33 nM, respectively.
